Experimental data published in the NIST ThermoML archive (doi:10.1021/je2003622).

Columns and labels:
[1] = wn = mass fraction of the nth substance listed; settings: 101 kPa, Liquid
[2] = mn = molality of the nth substance listed, in mol/kg; settings: 101 kPa, Liquid

CO [methanol] + O
[1]
Settings | mass density, 298.15 K [kg/m3] | mass density, 308.15 K [kg/m3] | mass density, 318.15 K [kg/m3] | mass density, 323.15 K [kg/m3] | viscosity, 298.15 K [mPa·s] | viscosity, 308.15 K [mPa·s] | viscosity, 318.15 K [mPa·s] | viscosity, 323.15 K [mPa·s]
w1 = 0.0806 | 982.97 | 979.73 | 976.04 | 974.38 | 1.084 | 0.8665 | 0.7017 | 0.6375
w1 = 0.1647 | 969.63 | 966.32 | 961.62 | 958.75 | 1.311 | 1.022 | 0.8075 | 0.73
w1 = 0.2526 | 956.2 | 951.6 | 946.26 | 943.31 | 1.471 | 1.142 | 0.8957 | 0.8052
w1 = 0.3446 | 939.57 | 933.64 | 931.4 | 928 | 1.448 | 1.203 | 0.9309 | 0.8288

CCCCCCCCCCCCOS(=O)(=O)[O-].[Na+] [sodium dodecyl sulfate] + O
[2]
Settings | mass density [kg/m3]
298.15 K, m1 = 0.03036 | 998.33
298.15 K, m1 = 0.04026 | 998.74
298.15 K, m1 = 0.04734 | 999.03
298.15 K, m1 = 0.05935 | 999.5
298.15 K, m1 = 0.0771 | 1000.24
298.15 K, m1 = 0.08753 | 1000.63
298.15 K, m1 = 0.0992 | 1001.07
298.15 K, m1 = 0.1159 | 1001.71
308.15 K, m1 = 0.03046 | 995.13
308.15 K, m1 = 0.0404 | 995.48
308.15 K, m1 = 0.04749 | 995.73
308.15 K, m1 = 0.05955 | 996.13
308.15 K, m1 = 0.07737 | 996.76
308.15 K, m1 = 0.08785 | 997.09
308.15 K, m1 = 0.09957 | 997.46
308.15 K, m1 = 0.1163 | 997.99
318.15 K, m1 = 0.03059 | 991.17
318.15 K, m1 = 0.04056 | 991.47
318.15 K, m1 = 0.04769 | 991.69
318.15 K, m1 = 0.0598 | 992.03
318.15 K, m1 = 0.07771 | 992.57
318.15 K, m1 = 0.08824 | 992.85
318.15 K, m1 = 0.1 | 993.17
318.15 K, m1 = 0.1169 | 993.63
323.15 K, m1 = 0.03066 | 988.91
323.15 K, m1 = 0.04066 | 989.19
323.15 K, m1 = 0.0478 | 989.39
323.15 K, m1 = 0.05995 | 989.71
323.15 K, m1 = 0.0779 | 990.21
323.15 K, m1 = 0.08845 | 990.47
323.15 K, m1 = 0.1003 | 990.76
323.15 K, m1 = 0.1172 | 991.18
